Values quoted from earlier work in patent publication US20060115424A1, “Combination therapy of oxaliplatin and radioactively doped particles treating cancer” (priority 2003, published 2006).

System: cancer
Conditions: Gray et al (2001) Annals of Oncology 12: 1711-1720

SMILES: O=c1[nH]c(=O)n([C@H]2C[C@H](O)[C@@H](CO)O2)cc1F [floxuridine]
- response rate: 17.6%
- time to disease progression: 9.7 months
